Results from patent EP1124556B1, “USE OF OPTICALLY PURE (R)-TOFISOPAM FOR TREATING AND PREVENTING ANXIETY DISORDERS” (priority 1998, dated 2000).
Values joined by “and” are separate entries in the source; they are usually repeats but may differ in a detail not shown here. Equal values may be shown once.

What was measured:
[1] = cited from earlier work
site II of HSA = site II of HSA (Homo sapiens, UniProt P02768); settings: cited from earlier work
Male Long Evans rats = test: Head-twitch response assay (potentiation of 5-MeODMT-induced head-twitches) for anxiolytic activity; assay type: in vivo; parameters: Score: scale not given here; settings: for Head Twitch: one hour before interperitoneal 3mg/kg 5-MeODMT, number of head-twitches over 1-5 minute period post injection, individual rats No. 1-3; for Score: group of 3 rats
Protocol: Dry preparations of tofisopam, R-tofisopam or S-tofisopam were dissolved in 2% Tween 80/5% DMSO for oral administration in a blind assay. Diazepam (Sigma, U.S.A.) was similarly dissolved in DMSO (Merck, Germany), distilled water and Tween 80 (Wako Pure Industries, Ltd., Japan).
Male Long Evans rats provided by animal breeding center of MDS Panlabs Taiwan, Ltd., were used. Space allocation for animals was as follows: 45 x 23 x 15 cm for 6 rats. Rats were housed in APEC® (Allentown Gaging, Allentown, NJ 08501, U.S.A.) cages in a positive pressure isolator (NuAire® , Mode: Nu-605, airflow velocity 50± 5 ft/min, HEPA Filter). All animals were maintained in a controlled temperature (22°C - 24°C) and humidity (60% - 80%) environment with 12 hours light dark cycles for at least one week in MDS Panlabs Taiwan laboratory prior to being used. Free access to standard lab chow for rats (Fwusow Industry Co., Limited, Taiwan) and tap water was granted. All aspects of this work including housing, experimentation and disposal of animals were performed in general accordance with the International Guiding Principles for Biomedical Research Involving Animals (CIOMS Publication No. ISBN 92 90360194, 1985).
Moser, P.C., "The Effect of Novel Axiolytics on the Head-Twitch Response in Mice" British J. Pharmacol Suppl. 99:248P (1990) . Based on those assays, test substances were administered orally to the rats one hour before interperitoneal injection of 3mg/kg 5-MeODMT. The number of head-twitches over a 1-5 minute period post injection were recorded (Table 1).

dopamine (D2L) receptor = dopamine (D2L) receptor (Homo sapiens, UniProt P14416); test: Dopamine receptor binding (preliminary results)
benzodiazepine receptor = settings: cited from earlier work
patients = settings: cited from earlier work
[2] = in vivo; cited from earlier work
[3] = Conformer interconversion in solution; assay type: physicochemical
Protocol: The enantiomers of tofisopam were resolved by chiral chromatography. For example, tofisopam (42.8mg dissolved in acetonitrile) was loaded onto a Chirobiotic V column (ASTEC, Whippany, NJ). Elution of the compounds with MTBE/ACN 90/10 (v/v), 40ml/min, was monitored at 310nm, 2mm path. The R(+) enantiomer was the first compound to elute from the column. The R(+) enantiomer was collected, dried and stored for use in biological assays. R(-)-tofisopam ("A" ' ) , S (-/+) tofisopam ("B" and "B' ") , and residual R(+)-tofisopam ("A") co-eluted and was collected in a subsequent fraction (e.g., FIG. 1, fraction 2). Approximately 20% of the R(+)-tofisopam in fraction 1 is converted into R(-)-tofisopam if left in solution for 24 hours. A 80/20 stable equilibrium (R+/R-) was observed between the two conformers in MTBE/ACN (90/10) solution at room temperature.

Sequence of dopamine (D2L) receptor (P14416 whole entry): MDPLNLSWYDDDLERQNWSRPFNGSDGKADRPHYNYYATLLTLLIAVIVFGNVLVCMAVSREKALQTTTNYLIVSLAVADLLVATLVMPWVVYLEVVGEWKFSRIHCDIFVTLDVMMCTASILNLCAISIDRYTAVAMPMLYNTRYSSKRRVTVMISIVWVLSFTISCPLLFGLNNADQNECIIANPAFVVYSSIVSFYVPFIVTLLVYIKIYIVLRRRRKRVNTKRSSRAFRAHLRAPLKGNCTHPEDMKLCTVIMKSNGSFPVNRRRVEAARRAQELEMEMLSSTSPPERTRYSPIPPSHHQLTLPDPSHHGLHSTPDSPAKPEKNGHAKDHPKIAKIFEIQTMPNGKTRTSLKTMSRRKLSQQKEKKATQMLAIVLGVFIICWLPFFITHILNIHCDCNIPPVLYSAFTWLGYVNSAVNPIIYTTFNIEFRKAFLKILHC
Sequence of site II of HSA (P02768 25-609): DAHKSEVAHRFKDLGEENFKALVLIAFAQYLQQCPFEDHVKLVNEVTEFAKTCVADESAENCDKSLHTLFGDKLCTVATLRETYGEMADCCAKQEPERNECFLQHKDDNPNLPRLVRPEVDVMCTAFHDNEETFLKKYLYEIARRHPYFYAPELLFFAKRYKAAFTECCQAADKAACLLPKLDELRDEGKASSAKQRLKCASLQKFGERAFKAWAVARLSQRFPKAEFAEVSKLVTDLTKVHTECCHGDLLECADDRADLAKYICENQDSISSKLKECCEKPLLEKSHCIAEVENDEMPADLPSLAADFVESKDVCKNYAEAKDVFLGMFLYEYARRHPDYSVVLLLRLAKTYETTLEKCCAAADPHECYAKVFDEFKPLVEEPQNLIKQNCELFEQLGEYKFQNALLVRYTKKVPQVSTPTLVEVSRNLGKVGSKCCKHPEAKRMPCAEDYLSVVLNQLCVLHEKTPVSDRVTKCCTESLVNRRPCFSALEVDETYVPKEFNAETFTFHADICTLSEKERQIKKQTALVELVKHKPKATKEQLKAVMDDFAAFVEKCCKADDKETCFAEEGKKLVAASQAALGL

## O=C1CCC(N2C(=O)c3ccccc3C2=O)C(=O)N1 (racemic) [racemic thalidomide]
[1]
  solubility relative to its separate isomers: ten times less soluble

## N[C@@H](Cc1c[nH]c2ccccc12)C(=O)O [L-Tryptophan]
Site II of HSA
  affinity for site II of HSA relative to the other enantiomer: about 100 times

## CC[C@H]1C(C)=NN=C(c2ccc(OC)c(OC)c2)c2cc(OC)c(OC)cc21 [R-tofisopam, R-1-(3,4-dimethoxyphenyl)-5-ethyl-7,8-dimethoxy-4-methyl-5H-2,3-benzodiazepine]
Male Long Evans rats; PO 30 mg/kg
  Head Twitch: 0 and 2 and 1
  Score: 1
Dopamine (D2L) receptor
  side effects related to binding to the dopamine (D2L) receptor: cannot manifest side effects related to binding to the dopamine (D2L) receptor

## CC[C@@H]1C(C)=NN=C(c2ccc(OC)c(OC)c2)c2cc(OC)c(OC)cc21 [S-tofisopam]
Male Long Evans rats; PO 30 mg/kg
  Head Twitch: 0
  Score: 0

## CN1C(=O)CN=C(c2ccccc2)c2cc(Cl)ccc21 [Diazepam]
Male Long Evans rats; PO 10 mg/kg
  Head Twitch: 5 and 1 and 9
  Score: 2

## CCC1C(C)=NN=C(c2ccc(OC)c(OC)c2)c2cc(OC)c(OC)cc21 (racemic) [tofisopam, 1-(3,4-dimethoxy-phenyl) - 4-methyl-5-ethyl-7,8-dimethoxy-5H-2,3-benzodiazepine]
Male Long Evans rats; PO 30 mg/kg
  Head Twitch: 0
  Score: 0
Benzodiazepine receptor
  binding to the benzodiazepine receptor: does not bind to the benzodiazepine receptor
Benzodiazepine receptor; in vivo and in vitro, after acute and chronic treatment
  binding of BDZs to their receptors: enhances the binding of BDZs to their receptors
patients; double-blind study, 4 weeks, 57 outpatients with anxiety and depression
  patients reporting side effects during treatment: twenty-one
patients; multicenter study, 325 patients, 3 weeks, 150-1300 mg/day
  anxiolytic effect: effective anxiolytic
[2]
  anticonvulsive, muscle relaxant or sedative effects: not have anticonvulsive, muscle relaxant or sedative effects

## CC[C@H]1C(C)=NN=C(c2ccc(OC)c(OC)c2)c2cc(OC)c(OC)cc21 [R(+)-tofisopam]
[3]; MTBE/ACN (90/10) solution at room temperature
  stable equilibrium (R+/R-): 80/20
[3]; left in solution for 24 hours
  converted into R(-)-tofisopam: Approximately 20%
